Reference: patent US20230066946A1, “1,5-DIPHENYLPYRAZOLYL-3-OXYALKYL ACIDS AND 1-PHENYL-5-THIENYLPYRAZOLYL-3-OXYALKYL ACIDS AND THE USE THEREOF FOR CONTROL OF UNWANTED PLANT GROWTH” (Bayer Aktiengesellschaft, priority 2019, published 2023)

Key:
PHBPU = test: Post-emergence herbicidal action against PHBPU; assay type: in vivo, Pharbitis purpurea; details: 320 g/ha, visual rating about 3 weeks after treatment
In short: (§1)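 Each pot held twin-sown weeds in sandy loam, treated post-emergence 2 to 3 weeks after sowing at the one-leaf stage. Compound was given as a foliar spray at 1280 or 320 g/ha in 600 litres per hectare water with 0.5% additive. Visual scoring against untreated controls followed after about 3 weeks.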

AMARE [1] = test: Post-emergence herbicidal action against AMARE; assay type: in vivo, Amaranthus retroflexus; details: visual rating about 3 weeks after treatment
In short: as §1

STEME [2] = test: Post-emergence herbicidal action against STEME; assay type: in vivo, Stellaria media; details: visual rating about 3 weeks after treatment
In short: as §1

VERPE [3] = test: Pre-emergence herbicidal action against VERPE; assay type: in vivo, Veronica persica; details: 320 g/ha, scored visually after about 3 weeks vs untreated controls
In short: (§2)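 Greenhouse pot test on sown, soil-covered weed seeds; spray of WP or EC formulation at 1280 or 320 g/ha onto covering soil. Effect rated visually after about 3 weeks (0% = like control, 100% = dead).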

POLCO [4] = test: Post-emergence herbicidal action against POLCO; assay type: in vivo, Polygonum convolvulus; details: 320 g/ha, visual rating about 3 weeks after treatment
In short: as §1

AMARE [5] = test: Pre-emergence herbicidal action against AMARE; assay type: in vivo, Amaranthus retroflexus; details: scored visually after about 3 weeks vs untreated controls; for Pre-emergence action at 320 g/ha against AMARE in %: 100% = plants have died, 0% = like control plants; for Pre-emergence action against AMARE in %: 1280 g/ha
In short: as §2

harmful plants [6] = test: Post-emergence herbicidal action, summary of Tables 5.1-5.16; assay type: in vivo; details: result in words
Experimental: Seeds of mono- and dicotyledonous weed plants are placed in plastic pots in sandy loam soil (twin sowing with one species each of mono- or dicotyledonous weed plants per pot), covered with soil and cultivated in a greenhouse under controlled growth conditions. 2 to 3 weeks after sowing, the test plants are treated at the one-leaf stage. The compounds of the invention, formulated in the form of wettable powders (WP) or as emulsion concentrates (EC), are applied to the green parts of the plants as aqueous suspension or emulsion with addition of 0.5% additive at a water application rate equivalent to 600 litres per hectare. After the test plants have been kept in the greenhouse under optimum growth conditions for about 3 weeks, the activity of the preparations is rated visually in comparison to untreated controls. For example, 100% activity=the plants have died, 0% activity=like control plants. Tables 5.1-5.16 below show the effects of selected compounds of the general formula (I) according to Tables 1 to 3 on various harmful plants at an application rate corresponding to 1280 or 320 g/ha, which have been obtained by the aforementioned experimental method. As the results from Tables 5.1-5.16 show, compounds of the invention have good herbicidal post-emergence efficacy against a broad spectrum of weed grasses and weeds. […] For example, compounds Nos. I-002, I-006, I-022, I-056 and I-072 applied by the post-emergence method have very good herbicidal action (80% to 100% herbicidal action) against harmful plants such as Alopecurus myosuroides, Amaranthus retroflexus, Matricaria inodora, Setaria viridis, Pharbitis purpurea and Stellaria media at an application rate of 1.28 kg of active substance or less per hectare.

STEME [7] = test: Pre-emergence herbicidal action against STEME; assay type: in vivo, Stellaria media; details: scored visually after about 3 weeks vs untreated controls
In short: as §2

ALOMY = test: Pre-emergence herbicidal action against ALOMY; assay type: in vivo, Alopecurus myosuroides; details: scored visually after about 3 weeks vs untreated controls, 100% = plants have died, 0% = like control plants
Text: (§3) Seeds of mono- and dicotyledonous weed plants are placed in plastic pots in sandy loam soil (doubly sown with one species each of mono- or dicotyledonous weed plants per pot) and covered with soil. The compounds of the invention, formulated in the form of wettable powders (WP) or as emulsion concentrates (EC), are then applied onto the surface of the covering soil as aqueous suspension or emulsion with addition of 0.5% additive at a water application rate equivalent to 600 litres per hectare. After the treatment, the pots are placed in a greenhouse and kept under good growth conditions for the trial plants. After about 3 weeks, the effect of the preparations is scored visually in comparison with untreated controls as percentages. For example, 100% activity=the plants have died, 0% activity=like control plants. [table] Tables 4.1-4.15 below show the effects of selected compounds of the general formula (I) according to Tables 1 to 3 on various harmful plants at an application rate corresponding to 1280 or 320 g/ha, which have been obtained by the aforementioned experimental method.

VERPE [8] = test: Post-emergence herbicidal action against VERPE; assay type: in vivo, Veronica persica; details: 320 g/ha, visual rating about 3 weeks after treatment
In short: as §1

harmful plants [9] = test: Pre-emergence herbicidal action, summary of Tables 4.1-4.15; assay type: in vivo; details: result in words
Text: as §3, with “plants.” for “plants. [table] Tables 4.1-4.15 below show the effects of selected compounds of the general formula (I) according to Tables 1 to 3 on various harmful plants at an application rate corresponding to 1280 or 320 g/ha, which have been obtained by the aforementioned experimental method.”
Tables 4.1-4.15 below show the effects of selected compounds of the general formula (I) according to Tables 1 to 3 on various harmful plants at an application rate corresponding to 1280 or 320 g/ha, which have been obtained by the aforementioned experimental method.
For example, compounds no. I-008, I-056, I-057, I-061, I-067, I-070 and I-072 applied by the pre-emergence method have very good action (80% to 100% herbicidal action) against harmful plants such as Alopecurus myosuroides, Amaranthus retroflexus, Matricaria inodora, Polygonum convolvulus, Setaria viridis and Stellaria media at an application rate of 1.28 kg of active substance or less per hectare.

POLCO [10] = test: Pre-emergence herbicidal action against POLCO; assay type: in vivo, Polygonum convolvulus; details: 320 g/ha, scored visually after about 3 weeks vs untreated controls
In short: as §2

MATIN [11] = test: Pre-emergence herbicidal action against MATIN; assay type: in vivo, Matricaria inodora; details: 1280 g/ha, scored visually after about 3 weeks vs untreated controls
Text: as §3

MATIN [12] = test: Post-emergence herbicidal action against MATIN; assay type: in vivo, Matricaria inodora; details: visual rating about 3 weeks after treatment
In short: as §1

SETVI [13] = test: Pre-emergence herbicidal action against SETVI; assay type: in vivo, Setaria viridis; details: 1280 g/ha, scored visually after about 3 weeks vs untreated controls
In short: as §2

SETVI [14] = test: Post-emergence herbicidal action against SETVI; assay type: in vivo, Setaria viridis; details: 1280 g/ha, post-emergence at one-leaf stage, rated visually after about 3 weeks vs untreated controls
In short: as §1

ECHCG [15] = test: Pre-emergence herbicidal action against ECHCG; assay type: in vivo, Echinochloa crus-galli; details: scored visually after about 3 weeks vs untreated controls, 100% = plants have died, 0% = like control plants
In short: as §2

ECHCG [16] = test: Post-emergence herbicidal action against ECHCG; assay type: in vivo, Echinochloa crus-galli; details: 1280 g/ha, post-emergence at one-leaf stage, rated visually after about 3 weeks vs untreated controls
In short: as §1

VIOTR = test: Post-emergence herbicidal action against VIOTR; assay type: in vivo, Viola tricolor; details: 320 g/ha, visual rating about 3 weeks after treatment
In short: as §1

Row | SMILES | Post-emergence action against PHBPU in % (PHBPU) [%] | Post-emergence action against AMARE in % (AMARE [1]; 320 g/ha) [%] | Post-emergence action against STEME in % (STEME [2]; 320 g/ha) [%] | Pre-emergence action against VERPE in % (VERPE [3]) [%] | Post-emergence action against POLCO in % (POLCO [4]) [%] | Pre-emergence action at 320 g/ha against AMARE in % (AMARE [5]) [%] | herbicidal efficacy against harmful plants when applied post-emergence (harmful plants [6]) | Post-emergence action against AMARE in % (AMARE [1]; 1280 g/ha) [%] | Pre-emergence action against STEME in % (STEME [7]; 1280 g/ha) [%] | Pre-emergence action at 1280 g/ha against ALOMY in % (ALOMY) [%] | Post-emergence action against VERPE in % (VERPE [8]) [%] | Pre-emergence action against AMARE in % (AMARE [5]) [%] | Pre-emergence action against POLCO in % (POLCO [10]) [%] | Post-emergence action against STEME in % (STEME [2]; 1280 g/ha) [%] | Post-emergence action against MATIN in % (MATIN [12]; 320 g/ha) [%] | Post-emergence action against MATIN in % (MATIN [12]; 1280 g/ha) [%] | Pre-emergence action against SETVI in % (SETVI [13]) [%] | Post-emergence action against SETVI in % (SETVI [14]) [%] | Pre-emergence action at 1280 g/ha against ECHCG in % (ECHCG [15]) [%] | further results
1 | COC(=O)COc1nn(-c2ccccc2)c(-c2ccc(F)cc2)c1C#N [I-014] | 80 | 80 | 80 | 100 | 80 | 100 | very good herbicidal efficacy | – | – | – | – | – | – | – | – | – | – | – | – | –
2 | COC(=O)COc1nn(-c2ccc(Cl)cc2)c(-c2ccc(F)cc2)c1Cl [I-007] | – | – | – | – | – | 80 | – | 80 | 90 | 80 | 90 | 100 | – | – | – | – | – | – | – | –
3 | COC(=O)COc1nn(-c2ccccc2)c(-c2ccc(F)cc2)c1Cl [I-008] | – | 80 | 90 | 90 | 80 | 100 | – | 80 | 100 | 100 | 90 | 100 | 80 | 90 | 90 | 90 | 90 | – | – | herbicidal efficacy against harmful plants in the case of pre-emergence treatment (harmful plants [9]): good herbicidal efficacy; Pre-emergence action against MATIN in % (MATIN [11]): 90%
4 | COC(=O)CNC(=O)C(C)Oc1nn(-c2ccccc2)c(-c2ccc(F)cc2)c1Cl (centres unmarked) [III-058] | – | – | – | – | – | – | very good herbicidal efficacy | 90 | 100 | – | – | 100 | – | 100 | – | 100 | 90 | 100 | 90 | –
5 | C1COCCN1.O=C(O)COc1nn(-c2cccc(F)c2)c(-c2ccccc2)c1I [II-04] | – | – | – | – | – | – | very good herbicidal efficacy | – | 100 | – | – | 100 | – | 100 | – | – | – | – | 100 | –
6 | COC(=O)COc1nn(-c2ccccc2F)c(-c2ccccc2)c1Br [I-054] | 100 | 90 | 90 | 100 | 80 | 100 | very good herbicidal efficacy | 100 | 100 | – | 80 | 100 | 100 | 100 | 90 | 100 | 90 | 100 | 90 | Post-emergence action against ECHCG in % (ECHCG [16]): 90%; Post-emergence action against VIOTR in % (VIOTR): 90%; Pre-emergence action against STEME in % (STEME [7]; 320 g/ha): 100%
